According to ChEMBL document CHEMBL1201861, “Genomics of Drug Sensitity in Cancer screening data, Wellcome Trust Sanger Institute”:

How the values were obtained:
Test in all cases: cells
CP66-MEL = assay type: functional, cell-based, Homo sapiens; details: Homo sapiens, CP66-MEL;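 further: growth inhibition of CP66-MEL cells determined in a cell viability assay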
Description: SANGER: Inhibition of human CP66-MEL cell growth in a cell viability assay.

D-502MG = assay type: functional, cell-based, Homo sapiens; details: Homo sapiens, D-502MG
Description: SANGER: Inhibition of human D-502MG cell growth in a cell viability assay.

DB = assay type: functional, cell-based; details: Homo sapiens
Description: SANGER: Inhibition of human DB cell growth in a cell viability assay.

DMS-273 = assay type: functional, cell-based, Homo sapiens; details: Homo sapiens, DMS-273
Description: SANGER: Inhibition of human DMS-273 cell growth in a cell viability assay.

ES6 = assay type: functional, cell-based, Homo sapiens; details: Homo sapiens, ES6;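 further: growth inhibition of human ES6 cells, read out with a cell viability assay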
Description: SANGER: Inhibition of human ES6 cell growth in a cell viability assay.

ESS-1 = assay type: functional, cell-based, Homo sapiens; details: Homo sapiens, ESS-1;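 further: growth inhibition of human ESS-1 cells, read out by a cell viability assay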
Description: SANGER: Inhibition of human ESS-1 cell growth in a cell viability assay.

H4 = assay type: functional, cell-based; details: Homo sapiens
Description: SANGER: Inhibition of human H4 cell growth in a cell viability assay.

HCC1419 = assay type: functional, cell-based, Homo sapiens; details: Homo sapiens, HCC1419;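 further: growth inhibition of human HCC1419 cells, read out as cell viability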
Description: SANGER: Inhibition of human HCC1419 cell growth in a cell viability assay.

HOP-92 = assay type: functional, cell-based, Homo sapiens; details: Homo sapiens, HOP-92;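 further: cell viability readout, with IC50 reflecting inhibition of HOP-92 cell growth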
Description: SANGER: Inhibition of human HOP-92 cell growth in a cell viability assay.

HPAF-II = assay type: functional, cell-based, Homo sapiens; details: Homo sapiens, HPAF-II;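 further: growth inhibition of HPAF-II cells, read out with a cell viability assay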
Description: SANGER: Inhibition of human HPAF-II cell growth in a cell viability assay.

HT1197 = assay type: functional, cell-based, Homo sapiens, HT-1197; details: Homo sapiens, HT1197
Description: SANGER: Inhibition of human HT-1197 cell growth in a cell viability assay.

HT-29 = assay type: functional, cell-based, Homo sapiens; details: Homo sapiens, HT-29;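 further: growth inhibition of human HT-29 cells, read out by a cell viability assay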
Description: SANGER: Inhibition of human HT-29 cell growth in a cell viability assay.

IST-MES1 = assay type: functional, cell-based, Homo sapiens; details: Homo sapiens, IST-MES1;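 further: growth inhibition of IST-MES1 cells, measured with a cell viability assay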
Description: SANGER: Inhibition of human IST-MES1 cell growth in a cell viability assay.

KNS-81-FD = assay type: functional, cell-based, Homo sapiens; details: Homo sapiens, KNS-81-FD;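 further: growth inhibition of KNS-81-FD cells, read out with a cell viability assay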
Description: SANGER: Inhibition of human KNS-81-FD cell growth in a cell viability assay.

KYSE-70 cell line = assay type: functional, cell-based, Homo sapiens; details: Homo sapiens, KYSE-70;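 further: cell viability assay read-out, with IC50 expressing suppression of KYSE-70 cell growth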
Description: SANGER: Inhibition of human KYSE-70 cell growth in a cell viability assay.

LB1047-RCC = assay type: functional, cell-based, Homo sapiens; details: Homo sapiens, LB1047-RCC;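 further: inhibition of cell growth, determined with a cell viability assay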
Description: SANGER: Inhibition of human LB1047-RCC cell growth in a cell viability assay.

LB771-HNC = assay type: functional, cell-based, Homo sapiens; details: Homo sapiens, LB771-HNC;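 further: growth inhibition of LB771-HNC human cells, read out with a cell viability assay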
Description: SANGER: Inhibition of human LB771-HNC cell growth in a cell viability assay.

MHH-NB-11 = assay type: functional, cell-based, Homo sapiens; details: Homo sapiens, MHH-NB-11;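 further: growth inhibition of human MHH-NB-11 cells, read out by a cell viability assay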
Description: SANGER: Inhibition of human MHH-NB-11 cell growth in a cell viability assay.

MIA PaCa-2 = assay type: functional, cell-based, Homo sapiens; details: Homo sapiens, MIA PaCa-2;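 further: growth inhibition of MIA PaCa-2 cells, read out with a cell viability assay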
Description: SANGER: Inhibition of human MIA-PaCa-2 cell growth in a cell viability assay.

MN-60 = assay type: functional, cell-based; details: Homo sapiens;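 further: growth inhibition of the MN-60 cell line, determined with a cell viability assay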
Description: SANGER: Inhibition of human MN-60 cell growth in a cell viability assay.

MOLT-16 = assay type: functional, cell-based; details: Homo sapiens;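 further: growth inhibition of human MOLT-16 cells, read out with a cell viability assay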
Description: SANGER: Inhibition of human MOLT-16 cell growth in a cell viability assay.

MPP-89 = assay type: functional, cell-based, Homo sapiens; details: Homo sapiens, MPP-89;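 further: growth inhibition of human MPP-89 cells, read out with a cell viability assay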
Description: SANGER: Inhibition of human MPP-89 cell growth in a cell viability assay.

MZ2-MEL = assay type: functional, cell-based, Homo sapiens; details: Homo sapiens, MZ2-MEL;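 further: growth inhibition of MZ2-MEL cells read out with a cell viability assay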
Description: SANGER: Inhibition of human MZ2-MEL cell growth in a cell viability assay.

MeWo = assay type: functional, cell-based, Homo sapiens; details: Homo sapiens, MeWo;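 further: growth inhibition of MeWo cells, determined by a cell viability readout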
Description: SANGER: Inhibition of human Mewo cell growth in a cell viability assay.

NB6 = assay type: functional, cell-based, Homo sapiens; details: Homo sapiens, NB6;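 further: growth inhibition of NB6 cells, read out by a cell viability assay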
Description: SANGER: Inhibition of human NB6 cell growth in a cell viability assay.

NCI-H1581 = assay type: functional, cell-based, Homo sapiens; details: Homo sapiens, NCI-H1581;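 further: cell growth inhibition read out by a viability assay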
Description: SANGER: Inhibition of human NCI-H1581 cell growth in a cell viability assay.

NCI-H1793 = assay type: functional, cell-based, Homo sapiens; details: Homo sapiens, NCI-H1793;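 further: cell growth inhibition, read out by a cell viability assay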
Description: SANGER: Inhibition of human NCI-H1793 cell growth in a cell viability assay.

NCI-H23 = assay type: functional, cell-based, Homo sapiens; details: Homo sapiens, NCI-H23;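 further: cell viability assay measuring growth inhibition of NCI-H23 cells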
Description: SANGER: Inhibition of human NCI-H23 cell growth in a cell viability assay.

NCI-H69 = assay type: functional, cell-based; details: Homo sapiens;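 further: growth inhibition of the cell line, read out with a cell viability assay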
Description: SANGER: Inhibition of human NCI-H69 cell growth in a cell viability assay.

NOMO-1 = assay type: functional, cell-based; details: Homo sapiens;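 further: growth inhibition of human NOMO-1 cells measured by a cell viability assay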
Description: SANGER: Inhibition of human NOMO-1 cell growth in a cell viability assay.

OCUB-M = assay type: functional, cell-based, Homo sapiens; details: Homo sapiens, OCUB-M;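 further: growth inhibition of the cancer cell line, read out through a cell viability assay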
Description: SANGER: Inhibition of human OCUB-M cell growth in a cell viability assay.

OVCAR-4 = assay type: functional, cell-based, Homo sapiens; details: Homo sapiens, OVCAR-4;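 further: growth inhibition of human OVCAR-4 cells, measured with a cell viability assay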
Description: SANGER: Inhibition of human OVCAR-4 cell growth in a cell viability assay.

OVCAR-5 = assay type: functional, cell-based, Homo sapiens; details: Homo sapiens, OVCAR-5;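 further: growth inhibition of human OVCAR-5 cells, read out with a cell viability assay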
Description: SANGER: Inhibition of human OVCAR-5 cell growth in a cell viability assay.

P12-Ichikawa = assay type: functional, cell-based; details: Homo sapiens
PA-1 = assay type: functional, cell-based, Homo sapiens; details: Homo sapiens, PA-1;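 further: IC50 for suppression of PA-1 cell proliferation, determined with a cell viability read-out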
Description: SANGER: Inhibition of human PA-1 cell growth in a cell viability assay.

SF-539 = assay type: functional, cell-based, Homo sapiens; details: Homo sapiens, SF-539;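 further: Read-out is a cell viability assay, with IC50 reflecting inhibition of cell growth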
Description: SANGER: Inhibition of human SF539 cell growth in a cell viability assay.

SK-MEL-2 = assay type: functional, cell-based, Homo sapiens; details: Homo sapiens, SK-MEL-2
Description: SANGER: Inhibition of human SK-MEL-2 cell growth in a cell viability assay.

SK-MEL-28 = assay type: functional, cell-based; details: Homo sapiens;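 further: growth inhibition of human SK-MEL-28 cells, read out with a cell viability assay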
Description: SANGER: Inhibition of human SK-MEL-28 cell growth in a cell viability assay.

SK-MES-1 = assay type: functional, cell-based, Homo sapiens; details: Homo sapiens, SK-MES-1;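 further: growth inhibition of human SK-MES-1 cells, read out with a cell viability assay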
Description: SANGER: Inhibition of human SK-MES-1 cell growth in a cell viability assay.

SW837 = assay type: functional, cell-based, Homo sapiens; details: Homo sapiens, SW837;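 further: growth inhibition of SW837 cells, determined with a cell viability assay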
Description: SANGER: Inhibition of human SW837 cell growth in a cell viability assay.

SW872 = assay type: functional, cell-based, Homo sapiens; details: Homo sapiens, SW872;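 further: growth inhibition of SW872 cells, read out by a viability assay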
Description: SANGER: Inhibition of human SW872 cell growth in a cell viability assay.

TE-1 = assay type: functional, cell-based, Homo sapiens; details: Homo sapiens, TE-1;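 further: growth inhibition of the human TE-1 cell line, read out with a cell viability assay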
Description: SANGER: Inhibition of human TE-1 cell growth in a cell viability assay.

5637 = assay type: functional, cell-based, Homo sapiens; details: Homo sapiens
Description: SANGER: Inhibition of human 5637 cell growth in a cell viability assay.

647-V = assay type: functional, cell-based, Homo sapiens; details: Homo sapiens, 647-V;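 further: growth inhibition of 647-V cells, read out with a cell viability assay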
Description: SANGER: Inhibition of human 647-V cell growth in a cell viability assay.

A253 cell line = assay type: functional, cell-based, Homo sapiens; details: Homo sapiens, A253;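 further: growth inhibition of A253 cells, read out with a cell viability assay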
Description: SANGER: Inhibition of human A253 cell growth in a cell viability assay.

A3-KAW = assay type: functional, cell-based; details: Homo sapiens;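 further: growth inhibition of human A3-KAW cells, read out with a cell viability assay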
Description: SANGER: Inhibition of human A3-KAW cell growth in a cell viability assay.

BT-474 = assay type: functional, cell-based, Homo sapiens; details: Homo sapiens, BT-474
Description: SANGER: Inhibition of human BT-474 cell growth in a cell viability assay.

CAL-54 = assay type: functional, cell-based, Homo sapiens; details: Homo sapiens, CAL-54;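 further: growth inhibition of CAL-54 cells, read out by a viability measurement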
Description: SANGER: Inhibition of human CAL-54 cell growth in a cell viability assay.

TGW = assay type: functional, cell-based; details: Homo sapiens;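 further: growth inhibition of human TGW cells, read out with a cell viability assay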
Description: SANGER: Inhibition of human TGW cell growth in a cell viability assay.

UACC-893 = assay type: functional, cell-based, Homo sapiens; details: Homo sapiens, UACC-893
Description: SANGER: Inhibition of human UACC-893 cell growth in a cell viability assay.

VM-CUB-1 = assay type: functional, cell-based; details: Homo sapiens;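 further: cell viability assay measuring growth inhibition of the human VM-CUB-1 cell line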
Description: SANGER: Inhibition of human VM-CUB-1 cell growth in a cell viability assay.

Q: How did the IC50 (CP66-MEL) turn out when `C=CCc1cccc(/C=N/NC(=O)CN2CCN(Cc3ccccc3)CC2)c1O` [PAC-1] was run?
A: > 2.56 µM

Q: What about the IC50 (D-502MG) of the same molecule?
A: > 2.56 µM

Q: And the IC50 (DB)?
A: > 2.56 µM

Q: What about the IC50 (DMS-273) of the same molecule?
A: > 2.56 µM

Q: What about the IC50 (ES6) of the same molecule?
A: 1.49 µM

Q: And the IC50 (ESS-1)?
A: > 2.56 µM

Q: And the IC50 (H4)?
A: > 2.56 µM

Q: And the IC50 (HCC1419)?
A: > 2.56 µM

Q: And the IC50 (HOP-92)?
A: > 2.56 µM

Q: And the IC50 (HPAF-II)?
A: > 2.56 µM

Q: And the IC50 (HT1197)?
A: > 2.56 µM

Q: What about the IC50 (HT-29) of the same molecule?
A: > 2.56 µM

Q: What about the IC50 (IST-MES1) of the same molecule?
A: > 2.56 µM

Q: What about the IC50 (KNS-81-FD) of the same molecule?
A: > 2.56 µM

Q: What about the IC50 (KYSE-70 cell line) of the same molecule?
A: > 2.56 µM

Q: What about the IC50 (LB1047-RCC) of the same molecule?
A: > 2.56 µM

Q: What about the IC50 (LB771-HNC) of the same molecule?
A: > 2.56 µM

Q: What about the IC50 (MHH-NB-11) of the same molecule?
A: > 2.56 µM

Q: And the IC50 (MIA PaCa-2)?
A: > 2.56 µM

Q: And the IC50 (MN-60)?
A: > 2.56 µM

Q: And the IC50 (MOLT-16)?
A: > 2.56 µM

Q: What about the IC50 (MPP-89) of the same molecule?
A: > 2.56 µM

Q: What about the IC50 (MZ2-MEL) of the same molecule?
A: > 2.56 µM

Q: What about the IC50 (MeWo) of the same molecule?
A: > 2.56 µM

Q: What about the IC50 (NB6) of the same molecule?
A: > 2.56 µM

Q: And the IC50 (NCI-H1581)?
A: > 2.56 µM

Q: What about the IC50 (NCI-H1793) of the same molecule?
A: > 2.56 µM

Q: And the IC50 (NCI-H23)?
A: > 2.56 µM

Q: What about the IC50 (NCI-H69) of the same molecule?
A: > 2.56 µM

Q: And the IC50 (NOMO-1)?
A: > 2.56 µM

Q: And the IC50 (OCUB-M)?
A: > 2.56 µM

Q: And the IC50 (OVCAR-4)?
A: > 2.56 µM

Q: What about the IC50 (OVCAR-5) of the same molecule?
A: > 2.56 µM

Q: And the IC50 (P12-Ichikawa)?
A: > 2.56 µM

Q: What about the IC50 (PA-1) of the same molecule?
A: > 2.56 µM

Q: What about the IC50 (SF-539) of the same molecule?
A: > 2.56 µM

Q: What about the IC50 (SK-MEL-2) of the same molecule?
A: > 2.56 µM

Q: And the IC50 (SK-MEL-28)?
A: > 2.56 µM

Q: What about the IC50 (SK-MES-1) of the same molecule?
A: > 2.56 µM

Q: What about the IC50 (SW837) of the same molecule?
A: > 2.56 µM

Q: What about the IC50 (SW872) of the same molecule?
A: > 2.56 µM

Q: What about the IC50 (TE-1) of the same molecule?
A: > 2.56 µM

Q: What about the IC50 5637 of the same molecule?
A: > 2.56 µM

Q: What about the IC50 (647-V) of the same molecule?
A: > 2.56 µM

Q: What about the IC50 (A253 cell line) of the same molecule?
A: > 2.56 µM

Q: What about the IC50 (A3-KAW) of the same molecule?
A: 1.93 µM

Q: What about the IC50 (BT-474) of the same molecule?
A: > 2.56 µM

Q: What about the IC50 (CAL-54) of the same molecule?
A: > 2.56 µM

Q: What about the IC50 (TGW) of the same molecule?
A: > 2.56 µM

Q: And the IC50 (UACC-893)?
A: > 2.56 µM

Q: What about the IC50 (VM-CUB-1) of the same molecule?
A: > 2.56 µM

Q: What does the source list for `CC(=O)O[C@@H]1[C@@H](OC(C)=O)[C@@H](O)[C@H](Oc2c(-c3ccc(O)cc3)oc3cc(O)cc(O)c3c2=O)O[C@H]1C`?
A: IC50 (CP66-MEL): > 10 µM; IC50 (D-502MG): > 10 µM; IC50 (DB): > 10 µM; IC50 (DMS-273): > 10 µM; IC50 (ES6): > 10 µM; IC50 (ESS-1): > 10 µM; IC50 (H4): > 10 µM; IC50 (HCC1419): > 10 µM; IC50 (HOP-92): > 10 µM; IC50 (HPAF-II): > 10 µM; IC50 (HT1197): > 10 µM; IC50 (HT-29): > 10 µM; IC50 (IST-MES1): > 10 µM; IC50 (KNS-81-FD): > 10 µM; IC50 (KYSE-70 cell line): > 10 µM; IC50 (LB1047-RCC): > 10 µM; IC50 (LB771-HNC): > 10 µM; IC50 (MHH-NB-11): > 10 µM; IC50 (MIA PaCa-2): > 10 µM; IC50 (MN-60): > 10 µM; IC50 (MOLT-16): > 10 µM; IC50 (MPP-89): > 10 µM; IC50 (MZ2-MEL): > 10 µM; IC50 (MeWo): > 10 µM; IC50 (NB6): > 10 µM; IC50 (NCI-H1581): > 10 µM; IC50 (NCI-H1793): > 10 µM; IC50 (NCI-H23): > 10 µM; IC50 (NCI-H69): > 10 µM; IC50 (NOMO-1): > 10 µM; IC50 (OCUB-M): > 10 µM; IC50 (OVCAR-4): > 10 µM; IC50 (OVCAR-5): > 10 µM; IC50 (P12-Ichikawa): > 10 µM; IC50 (PA-1): > 10 µM; IC50 (SF-539): > 10 µM; IC50 (SK-MEL-2): > 10 µM; IC50 (SK-MEL-28): > 10 µM; IC50 (SK-MES-1): > 10 µM; IC50 (SW837): > 10 µM; IC50 (SW872): > 10 µM; IC50 (TE-1): > 10 µM; IC50 5637: > 10 µM; IC50 (647-V): > 10 µM; IC50 (A253 cell line): > 10 µM; IC50 (A3-KAW): > 10 µM; IC50 (BT-474): > 10 µM; IC50 (CAL-54): > 10 µM; IC50 (TGW): > 10 µM; IC50 (UACC-893): > 10 µM; IC50 (VM-CUB-1): > 10 µM
